Entries after “also recorded” stand apart in the source; their conditions may differ.
How the values were obtained:
[1] = tested on: LPS activated rat microglia cells; experiment: Nitrite (NO) release from LPS activated rat primary microglia (Modified Griess Reagent); assay type: cell-based; conditions: 100 ng/ml LPS, compound 1 hr before LPS, supernatant 24 hrs post-LPS
Protocol: (§1) Rat microglia were prepared from two day old rat pups. Pup brains were removed and the meninges were gently removed. Once sufficient amount of brains were collected, brains were minced with a blunt scissors (10 times) and transferred to a 15ml conical tube with a pasteur pipette and titurated 25 times. Dissociated cells were then centrifuged at 1000 RPM for 10 minutes (RT). The supernatant was removed and 2 mls of fresh media was added. The resultant cell suspension was titurated 10 times. Following titration the cell suspension was plated in a T175 cm^2 culture flasks at a density of 4 brains per flask in 25 mls. MEM media was used for the experiments, supplemented with 10% FBS, 100 i.u.penicillin, 100 i.u.streptomycin and L-Glutamine. Microglia were isolated on day 14 by shaking on an orbital rotation shaker. The purity of the cultures was 98-100% as determined by immunostaining with ED-40 antibody.
(§2) Endotoxin (LPS) at a concentration of a 100 ng/ml were used for activation of rat microglia cells. This concentration had previously shown to be effective in inducing TNF-alpha and Nitrite release. All assays were performed in 48 well plates (Becton Dickinson) at ˜2×10^5 cells or 0.5×10^5 per 1 ml per well in 10% MEM media. Microglia cells were pre-incubated 1 hr prior to LPS challenge with either vehicle (0.1%DMSO) or test compound in DMEM containing 10%FBS (microglia) or RPMI containing 10%FBS (THP-1 monocytes). Supernatants from LPS activated rat microglia were collected at 24 hrs post-LPS challenge.
Nitrite assay was performed in a 96 well plate using a Modified Griess Reagent (Sigma). In brief, a 100 ul of Modified Griess Reagent was added to a 100 ul of collected supernatant. Samples were read at a wavelength of 540nm. All values were calculated against a NaNO2 standard curve.

[2] = tested on: LPS activated rat microglia cells; experiment: TNF-alpha release from LPS activated rat primary microglia (ELISA); assay type: cell-based; conditions: for TNF-alpha release: rat primary microglia, 100 ng/ml LPS, compound 1 hr before LPS, supernatant 24 hrs post-LPS
Protocol: as §1, §2
Collected supernatants were assayed for TNF-alpha using a Pharmingen OPtEIA Rat (microglia).

IκBα = experiment: LPS mediated IκBα degradation in microglia (immunoblotting); assay type: cell-based, rat; conditions: 100 ng/ml LPS, 10μM ATFMK, 50μM L-655,238
Protocol: Immunoblotting was carried out as described previously (Parvathenani et al., 2000). Briefly 25μg of protein was fractionated on a 4-20% tris-glycine gel (NOVEX, Calif.) and transferred to PVDF membrane (NOVEX, Calif.). The membrane was probed with a polyclonal antibody specific for IκBα. To distinguish between the phosphorylated and non-phosphorylated forms of cPLA2, 50μg of protein was run on an 8% tris-glycine gel (Novex, Calif.) for 4.5 hours at 125V, transferred and probed with a monoclonal antibody specific for cPLA2.
Effects of cPLA2 and 5-LOX inhibitors on LPS mediated IκBα degradation. Microglia were treated with 100 ng/ml of LPS for various periods of time following which whole cell lysates were prepared and run on SDS-PAGE, transferred and probed with a IκBα antibody as mentioned in immunoblotting. (6A) 100 ng/ml LPS alone, (6B) LPS+10μM ATFMK, (6C) LPS+50μM L-655,238.

NF-κB (p65) = experiment: LPS mediated NF-κB (p65) nuclear translocation in microglia (indirect immunofluorescence); assay type: cell-based, rat; conditions: 100 ng/ml LPS, 5 min, 10μM ATFMK, 50μM L-655,238
Protocol: Cells were washed once with PBS, fixed and permeabilized with ice cold methanol (100%) for 5 minutes and washed 3× in PBS for 10 min. The cover slips were blocked for 1 hour in 10% serum/PBS (serum derived from animal in which secondary antibody was generated), incubated for 2-3 hours in primary antibody solution (1:50 dilution in 1.5% serum/PBS) and washed 3× in PBS for 10 min. Secondary antibody linked to fluorescein was applied for one hour (1:100 dilution in 1.5% serum/PBS) and washed 3× in PBS for 10 min. If the nucleus was stained, the cells were incubated for 15 minutes with DAPI (1:10000) at 37° C. and washed. The coverslips were then mounted onto glass slides using mounting media and viewed under a fluorescence microscope.
Effects of cPLA2 and 5-LOX inhibitors on LPS mediated NF-κB translocation. Microglia were treated with 100 ng/ml of LPS for various periods of time following which p65 distribution was assessed by indirect immunofluorescence (7A) control, (7B) LPS-5 min., (7C) LPS+10μM ATFMK—5 min., (7D) LPS+50μM L-655,238—5 min. (7E) LPS+NDGA-20μM—5 min.

IκBα phosphorylation = conditions: irreversible inhibitor; read-out: IC50, inhibition of IκBα phosphorylation; cited from earlier work
COX = conditions: cited from earlier work
5-LOX = conditions: cited from earlier work

In the case of `CCCCC/C=C\C/C=C\C/C=C\C/C=C\CCCC(=O)C(F)(F)F` [ATFMK, arachidonyltrifluoromethyl ketone], the “nitrite (NO) release” value [1] is reported as “significant dose-dependent inhibition; also recorded: significantly inhibited nitrite release”, the TNF-alpha release [2] is reported as “significant dose-dependent inhibition; also recorded: significantly inhibited TNF-alpha release” and the “degradation of IκBα following LPS stimulation” value (IκBα) is reported as “attenuated the degradation of IκBα”. For the same compound, the “translocation of NF-κB into the nucleus” value (NF-κB (p65)) was “delayed the translocation of NF-κB into the nucleus”.

For `CC(C)(C)c1ccc(S(=O)(=O)/C=C/C#N)cc1` [BAY 11-7085, (E)3-((4-t-Butylphenyl)sulfonyl)-2-propenenitrile], the “nitrite (NO) release” value [1] is listed as “inhibited LPS induced TNFα and NO release to control levels”, the IC50 (IκBα phosphorylation) is listed as 10 µM and the TNF-alpha release [2] is listed as “inhibited LPS induced TNFα and NO release to control levels”.

In the case of `O=C(CCc1ccc(OCCS(=O)(=O)CCOC(c2ccc(Cl)cc2)c2ccc(Cl)cc2)cc1)C(F)(F)F` [BMS 229724], the “nitrite (NO) release” value [1] is reported as “significant dose-dependent inhibition”, the TNF-alpha release [2] is reported as “significant dose-dependent inhibition” and the TNF-alpha release ([2]; listed as BMS-229724) is reported as “significantly inhibited TNF-alpha release”.

For `CC(C)Cc1ccc(C(C)C(=O)O)cc1` (centres unmarked) [Ibuprofen], the TNF-alpha release [2] was “failed to produce any reduction in TNF-alpha release”.

For `CC(Cc1ccc(O)c(O)c1)C(C)Cc1ccc(O)c(O)c1` (centres unmarked) [NDGA, nordihdroguaiaretic acid], the “nitrite (NO) release” value [1] is listed as “dose dependently inhibited TNF-alpha release and nitrite to near control levels”, the IC50 (COX) is listed as 100 µM and the TNF-alpha release [2] is listed as “dose dependently inhibited TNF-alpha release and nitrite to near control levels; also recorded: significantly inhibited TNF-alpha release”. For the same compound, the IC50 (5-LOX) was […].

For `Cc1ccc(-c2cc(C(F)(F)F)nn2-c2ccc(S(N)(=O)=O)cc2)cc1` [celecoxib], the “pro-inflammatory release on activated microglia” value [2] was “no significant effect”.

With `CCCCCC(O)c1ccc(Cc2cnc3ccccc3c2)cc1` (stereo not drawn) [para-REV5901, α-pentyl-4-(3-quinolinylmethyl)benzenemethanol] the “nitrite (NO) release” value [1] was “dose dependently inhibited TNF-alpha release and nitrite to near control levels; also recorded: significantly inhibited nitrite release”, the TNF-alpha release [2] was “dose dependently inhibited TNF-alpha release and nitrite to near control levels; also recorded: significantly inhibited TNF-alpha release” and the “degradation of IκBα following LPS stimulation” value (IκBα) was “attenuated the degradation of IκBα”. For the same compound, the IC50 (5-LOX) was 0.1 µM and the “translocation of NF-κB into the nucleus” value (NF-κB (p65)) was “delayed the translocation of NF-κB into the nucleus”.

In the case of `CS(=O)(=O)c1ccc(C2=C(c3ccccc3)C(=O)OC2)cc1` [rofecoxib], the “pro-inflammatory release on activated microglia” value [2] is reported as “no significant effect” and the TNF-alpha release [2] is reported as “failed to produce any reduction in TNF-alpha release”.
